Experimental data: patent US10793509B2, “Compounds useful in the treatment of neoplastic diseases” (UNIVERSITÄT ZU KÖLN, priority 2013, dated 2020)

How the values were obtained:
Primary CLL cells = assay: AnnexinV/PI assay on primary CLL cells; type: cell-based, human
Experimental: (§1) PBMCs or CLL cells (5*10^6 cells/ml) were incubated for 24 h with different compounds at concentrations from 0.01 to 100 μM. Cell survival was normalized to DMSO control [vehicle]. See Example 1.
(§2) Primary CLL or peripheral blood mononuclear cells of healthy donors (5*10^6/ml) were incubated for 24 h with different compounds according to the invention and NO-ASA as a control. The compounds were added in different concentrations, in particular in concentrations from 0.01-100 μM. Cell survival was assessed by AnnexinV/PI assay (Kit commercially available, e.g. by Biotium Inc, USA; or Phoenix Flow Systems, US), the results were normalized to DMSO control [vehicle] and dose response curves were calculated using a non-linear regression model.

[1] = system: peripheral blood mononuclear cells (PBMCs) of healthy donors; assay: AnnexinV/PI assay on PBMCs of healthy donors; type: cell-based; conditions: Homo sapiens, PBMC; 24 h incubation, 0.01-100 μM, 5*10^6 cells/ml, normalized to DMSO control; read-out: AnnexinV/PI assay EC50 PBMCs
Experimental: as §1, §2

MEC-1 = assay: CellTiter-Glo ATP assay, MEC-1 cell line; type: cell-based; conditions: 24 h
Experimental: (§3) Several cell lines (n=5) were treated with different concentrations of p-NO-ASA, B9, B12 and B13 ranging between 0.01 μM and 1000 μM for 24 hours followed by addition of luminogenic CellTiter-Glo®-reagent. […] For each cell line the order of used compound in the bar chart is from left to right as following: p-NO-ASA, B9, B12, B13.
(§4) Treatment success in CLL may depend on cytogenetic and molecular parameters as for instance del13q or TP53 gene disruption. Therefore, the NO-ASA derivatives were examined on (chronic) B cell lymphoma cell lines with different geno- and phenotypes (JVM3, EHEB, U2932, MEC-1, GRANTA-519). The cells were treated with concentrations between 0.01 and 1000 μM for 24 h followed by the addition of luminogenic CellTiter-Glo® reagent.

GRANTA-519 = assay: CellTiter-Glo ATP assay, GRANTA-519 cell line; type: cell-based; conditions: 24 h
Experimental: as §3, §4

JVM-3 = assay: CellTiter-Glo ATP assay, JVM-3 cell line; type: cell-based, human; conditions: 24 h, 0.01-1000 μM
Experimental: as §3, §4

U2932 = assay: CellTiter-Glo ATP assay, U2932 cell line; type: cell-based; conditions: 24 h, 0.01-1000 μM
Experimental: as §3, §4

EHEB = assay: CellTiter-Glo ATP assay, EHEB cell line; type: cell-based; conditions: 24 h, 0.01-1000 μM
Experimental: as §3, §4

[2] = system: SW480, MelJuso, HCC44, SH2 and COLO704 cell lines; type: cell-based; conditions: 24 h, 0.01-100 μM
Experimental: In the following experiment the possible therapeutic window for NO-ASA derivatives was investigated. […] The melanoma cell line MelJuso, the colon carcinoma cell line SW480, the small cell lung cancer cell line HCC44, the ovarian adenocarcinoma cell line COLO704 and the acute myeloid leukemia cell line SH2 were treated with concentrations of p-NO-ASA and B9, B12 and B13 in a range between 0.01 μM and 100 μM for 24 h, followed by addition of luminogenic CellTiter-Glo® reagent.

caspases 3 and 7 = assay: caspase-3/7 assay in CLL cells; type: cell-based; conditions: Homo sapiens, CLL cell, 6 h, 0.01-20 μM, luminogenic caspase-3/7-substrate, read-out: activation of caspases 3 and 7, EC50
Excerpt: FIG. 8 depicts the involvement of caspase-mediated apoptosis in CLL cells upon treatment with p-NO-ASA, B9, B12 and B13. Representative blots of 3 independent experiments are shown. Untreated and DMSO (1%) treated cells served as control. beta-actin=loading control (FIG. 8A). para-NO-ASA and B9 induced a concentration-dependent increase in caspase-3/7-activation (FIG. 8B).
To determine whether the toxicity on CLL cells is due to caspase-mediated apoptosis, the cleavage of PARP (Poly(ADP-ribose)-Polymerase 1) and XIAP (X-linked inhibitor of apoptosis) was analyzed by immunoblot. CLL cells were cultured alone, with 1% DMSO or with EC50 of p-NO-ASA, meta-NO-ASA, B9, B12 and B13 for 24 h followed by protein lysation and western blot analysis using antibodies to detect prognostic apoptotic proteins (XIAP, PARP). […] All compounds tested induced PARP and XIAP cleavage (FIG. 8A). Further a caspase-3/7 assay was carried out. CLL cells were incubated with para-NO-ASA and B9 in different concentrations ranging from 0.01 μM to 20 μM for 6 h followed by addition of luminogenic caspase-3/7-substrate. This indicates the reduction of the survival of CLL cells upon treatment with p-NO-ASA and B9 due to the induction of caspase-mediated apoptosis.

[3] = system: phosphorylated NFkappaBp65 protein; assay: Western blot of NFkappaB phosphorylation status in CLL cells; type: cell-based, human; conditions: 3 h
Experimental: CLL cells were treated with B1, B9, B12 and B13 (0.1 μM, 1 μM, 10 μM) for 3 h. Untreated and DMSO (1%) treated cells served as control. GAPDH=loading control.
The BCR signalling pathway plays an important pathogenic role in CLL and lymphomas leading often to a constitutive active NFkappaB (in this state NFkappaB is phosphorylated). Therefore the influence of the derivatives on the phosphorylation status of NFkappaB was analyzed by Western Blot. CLL cells were treated with 0.1 μM, 1 μM or 10 μM of each derivate, respectively, for 3 h. CLL cells were treated with B1, B9, B12 and B13 (0.1 μM, 1 μM, 10 μM) for 3 h. Untreated and DMSO (1%) treated cells served as control. GAPDH=loading control.

[4] = 0.01-1000 μM, compared to B9, B12, B13

SMILES: CC(=O)Oc1ccccc1C(=O)Oc1ccc(CO[N+](=O)[O-])cc1 [B1, 4-(nitrooxy)methyl phenyl-2-acetoxy benzoate, reference compound]
- selectivity for CLL cells compared to PBMCs (Primary CLL cells; FIG. 3, sensitivity of CLL cells vs PBMCs, 24 h): selective for CLL cells
- EC50 (Primary CLL cells; Homo sapiens, CLL cell, 24 h incubation, 0.01-100 μM, 5*10^6 cells/ml, normalized to DMSO control, read-out: AnnexinV/PI assay EC50 Primary CLL): 6.7 µM
- EC50 [1]: 47.2 µM
- effectiveness in MEC-1 (ATP content) (MEC-1; [4]): significantly less effective
- EC50 (MEC-1; Homo sapiens, MEC1, CellTiter-Glo): 53.4 µM
- effectiveness in GRANTA-519 (ATP content) (GRANTA-519; [4]): significantly less effective
- EC50 (GRANTA-519; Homo sapiens, Granta-519, CellTiter-Glo): 22.2 µM
- ATP content in JVM-3 (JVM-3): reduced ATP content
- ATP content in U2932 (U2932): reduced ATP content
- ATP content in EHEB (EHEB): reduced ATP content
- ATP content in SW480, MelJuso, HCC44, SH2 and COLO704 cell lines [2]: reduced ATP content
- EC50 (caspases 3 and 7): 1.84 µM
- reduction of NFkappaB activity (phosphorylated NFkappaBp65) ([3]; CLL cells, 0.1, 1, 10 μM): concentration dependent reduction
- concentration inducing the reduction of NFkappaB p65 protein ([3]; CLL cells): twofold concentration
